Assay results: patent publication US20110219476A1, “GLUCURONYL TRANSFERASE AND POLYNUCLEOTIDE ENCODING THE SAME” (priority 2008, published 2011)

What was measured:
[1] = molecular target: T1, flavonoid 7-O-glucuronosyltransferase VpF7GAT (Veronica persica, UniProt C0STS8); assay: Selectivity of VpF7GAT to glycosyl acceptor substrates (glycosyl donor: UDP-glucuronic acid); format: biochemical; conditions: for glucuronosyltransferase activity (in words) / relative activity of glycosyl acceptor substrate: glycosyl donor UDP-glucuronic acid; for glucuronosyltransferase activity (in words): reaction conditions for this enzyme; for activity of VpF7GAT with the glycosyl acceptor substrate (in words, summary in the description): compared to other glycosyl acceptor substrates; for relative activity of glycosyl acceptor substrate: activity to apigenin made 100%, FIG. 3
Protocol: (§1) Standard reaction conditions are as follows. […] The mixture was reacted at 30° C. for 1 minute. The reaction was then terminated by adding 50 μl of CH3CN containing 0.5% TFA. The product was analyzed by reversed phase HPLC (LC-2010 System, Shimadzu Corporation).
(§2) The conditions for HPLC are as follows. Develosil C30-UG-5 column (4.6 mm×150 mm, Nomura Chemical) was used with a column oven at 40° C., and the moving phase A (0.1% TFA/H2O) and the moving phase B (0.1% TFA/90% CH3CN) were used. The conditions for elution include a linear density gradient (B20%→B70%) for 15 minutes, then retention with B70% for further 1 minute and again reverting to B20%, followed by equilibration for 20 minutes. HPLC was performed at the flow of 1 ml/min. Detection was performed at 280 and 360 nm using a SPD-M10A Photodiode Array Detector (Shimadzu Corporation).

[2] = molecular target: T1, flavonoid 7-O-glucuronosyltransferase VpF7GAT; conditions: glycosyl acceptor substrate apigenin; activity of UDP-glucuronic acid made 100%
Protocol: as §1, §2

T1 sequence (C0STS8 entry or part of it): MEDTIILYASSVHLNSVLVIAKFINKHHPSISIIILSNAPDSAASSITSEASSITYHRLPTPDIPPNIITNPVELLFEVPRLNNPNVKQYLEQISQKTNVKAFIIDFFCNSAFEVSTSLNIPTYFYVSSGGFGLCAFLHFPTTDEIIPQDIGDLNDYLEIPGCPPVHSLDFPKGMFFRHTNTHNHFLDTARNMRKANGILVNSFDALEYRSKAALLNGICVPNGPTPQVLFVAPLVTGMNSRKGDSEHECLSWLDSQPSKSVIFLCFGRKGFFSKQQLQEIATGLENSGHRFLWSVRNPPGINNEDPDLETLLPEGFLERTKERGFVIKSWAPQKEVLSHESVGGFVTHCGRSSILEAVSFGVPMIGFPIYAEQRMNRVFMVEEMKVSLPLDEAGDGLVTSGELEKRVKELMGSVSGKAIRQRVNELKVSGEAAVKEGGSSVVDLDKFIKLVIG

SMILES | glucuronosyltransferase activity (in words) [1] | activity of VpF7GAT with the glycosyl acceptor substrate (in words, summary in the description) [1] | relative activity of glycosyl acceptor substrate [1] | relative activity of UDP glycosyl donor [2]
O=c1cc(-c2ccc(O)cc2)oc2cc(O)c([C@@H]3O[C@H](CO)[C@@H](O)[C@H](O)[C@H]3O)c(O)c12 [isovitexin] | not observed |  |  | 
O=c1ccc2cc(O)c(O)cc2o1 [esculetin] | not observed |  |  | 
O=c1cc(-c2ccc(O)c(O)c2)oc2c([C@@H]3O[C@H](CO)[C@@H](O)[C@H](O)[C@H]3O)c(O)cc(O)c12 [orientin] | not observed |  |  | 
COc1ccc(-c2cc(=O)c3c(O)cc(O)cc3o2)cc1O [diosmetin] |  | strong | 12.9% | 
O=c1c(O)c(-c2ccc(O)c(O)c2)oc2cc(O)cc(O)c12 [quercetin] |  | shows an activity | 1.0% | 
O=c1cc(-c2ccccc2)oc2cc(O)c(O)c(O)c12 [baicalein] |  | shows an activity | 13.1% | 
Oc1ccc(C=Cc2cc(O)cc(O)c2)cc1 [resveratrol] | not observed |  |  | 
O=C(O)[C@H]1O[C@H](OP(=O)(O)OP(=O)(O)OC[C@H]2O[C@@H](n3ccc(=O)[nH]c3=O)[C@H](O)[C@@H]2O)[C@H](O)[C@@H](O)[C@@H]1O [UDP-glucuronic acid] |  |  |  | 100%
COc1cc(-c2cc(=O)c3c(O)cc(O)cc3o2)ccc1O [chrysoeriol] |  | strong | 34.0% | 
O=c1cc(-c2ccc(O)cc2)oc2cc(O)c(O)c(O)c12 [scutellarein] |  |  | 88.3% | 
O=c1c(-c2ccc(O)cc2)coc2cc(O)cc(O)c12 [genistein] | not observed |  |  | 
O=c1c(O)c(-c2ccc(O)cc2)oc2cc(O)cc(O)c12 [kaempferol] |  | strong | 13.3% | 
O=c1cc(-c2ccc(O)cc2)oc2cc(O)cc(O)c12 [apigenin] |  | strong | 100% | 
Oc1cc2c(cc1[C@H]1OC[C@H]3[C@@H]1CO[C@@H]3c1ccc3c(c1)OCO3)OCO2 [sesaminol] | not observed |  |  | 
O=C1C[C@@H](c2ccc(O)cc2)Oc2cc(O)cc(O)c21 [naringenin] |  | strong | 18.0% | 
